The source of these data is patent US20120232062A1, “AZAINDAZOLES TO TREAT FLAVIVIRIDAE VIRUS INFECTION” (EIGER BIOPHARMACEUTICALS, INC., priority 2009, published 2012).

One data set relates to HCV genotype 1b. Briefly: HCV 1b replicon luciferase assay. Particulars: Hepatitis C virus, Huh-7, 48 h, Table 1; Huh7 HCV 1b replicon, luciferase reporter, 48 hours; read-out: 1b EC50. The class given is cell-based. In short, it runs like this:
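Luminescence (Steady-Glo) served as the replication read-out after 48 h compound exposure of 1b replicon-luciferase Huh7 cells seeded at 10k/well. Dosing used 5-fold serial dilutions, 10 concentrations, top 25 μM final, 0.1% DMSO, duplicates.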
(Replicon systems follow genome replication, usually without infectious particles.)

Data set [1] in a line: Liver microsome stability, human. Format: in vitro ADME. From the text:
(§1) Metabolic stability assays are designed to measure the stability of a test compound in a variety of assay matrices from human and animal species. From a metabolism perspective, a drug would be relatively stable, have a small first-pass effect, and maintain an effective concentration in blood for a reasonable period of time. A microsomal preparation from the liver contains all CYP isozymes and other membrane-bound drug metabolizing enzymes which are responsible for the metabolism for the majority of drugs in humans. Metabolic stability in liver microsomes can determine half-life (T1/2) and intrinsic clearance (Clint). The determination of Clint may be useful to determine whether metabolism is the major elimination pathway when it is compared to total body clearance in vivo. For high metabolic stability in liver microsomes: […] Human, Sprague Dawley rat, and CD-1 mouse liver microsome samples were purchased from BD Gentest. An in vitro metabolic stability assay suitable for use in predicting first pass metabolism of the compounds useful in the methods of the invention is described in this example. […] 6 mM NADPH in 0.1 M K-phosphate buffer is prepared by dissolving 25.1 mg of NADPH tetrasodium salt in 5 mL of K-phosphate buffer. […] The plate is pre-incubated at 37° C. for 10 minutes. 15 μL of NADPH stock solution (6 mM) is added to the wells designated for Time 60 and timed. At 30 min, 15 min, and 5 min, 15 μL of NADPH stock solution (6 mM) is added to the wells. At the end of incubation, 135 μL of ACN containing IS is added to all the wells (60 min, 30 min, 15 min, 5 min and 0 min). Then 15 μL of NADPH stock solution (6 mM) is added to the wells designated as Time 0.
A general note: Liver microsomes are vesicles of endoplasmic reticulum, rich in cytochrome P450 enzymes.

The nature of data set [2]: Liver microsome stability, rat. Format: in vitro ADME, Sprague Dawley rat.
Excerpt: as §1

Data set [3] in a line: Liver microsome stability, mouse. Format: in vitro ADME, CD-1 mouse.
Excerpt: as §1

Another data set concerns the target T1, hERG channel (Homo sapiens, UniProt Q12809).
T1 construct: host or cells: CHO (Chinese Hamster Ovary), stably transfected
Description: hERG channel assay. Format: cell-based. The settings on record: CHO cell line expressing hERG, whole cell recordings. How it is done:
The most common mechanism for these adverse events is the inhibition of one or more cardiac potassium channels, in particular hERG. This current is important for cardiac myocyte repolarization and is a common target for drugs that prolong the QT interval. Test articles in this study were therefore characterized to determine their ability to inhibit the hERG channel. Ion channel activity was measured using a stably transfected Chinese Hamster Ovary (CHO) cell line expressing the hERG mRNA. The pharmacology of this cloned channel expressed in the CHO cell line is very similar to that observed in native tissue.
Cells: AVIVA's CHO cell line, which stably expresses hERG channels, was used for the study. Cells were cultured in DMEM/F12 containing 10% FBS, 1% penicillin/streptomycin and 500 μg/ml G418. Before testing, cells were harvested using Accumax (Innovative Cell Technologies).
Solutions: For electrophysiological recordings, the following solutions were used. External Solution: 2 mM CaCl2; 2 mM MgCl2; 4 mM KCl; 150 mM NaCl; 10 mM Glucose; 10 mM HEPES; 310-320 mOsm; pH 7.4 (adjusted with 1M NaOH). Internal Solution: 140 mM KCl; 10 mM MgCl2; 6 mM EGTA; 5 mM HEPESNa; […]; 300-320 mOsm; pH 7.25 (adjusted with 1M KOH).
Electrophysiology: Whole cell recordings were performed using PX 7000A (Axon Instruments) with VIVA's SealChip™ technology. Cells were voltage clamped at a holding potential of −80 mV. The hERG current was then activated by a depolarizing step to −50 mV for 300 ms. This first step at −50 mV was used as a baseline for measuring peak amplitude of the tail current. Next, a voltage step to +20 mV was applied for 5 s to activate the channels. Finally a step back to −50 mV for 5 seconds removed activation and the deactivating tail current was recorded.
Compound Handling and Dilutions: All compounds were prepared from either 10 or 30 mM DMSO stock solutions. Solutions were mixed by sonication for 20 min, followed by vigorous vortexing. Prior to testing, compounds were diluted to test concentrations in glass vials using External Solution. Dilutions were prepared no longer than 20 min prior to use. Equal amounts of DMSO (0.1%) were present in all final dilutions.
Electrophysiology Procedures: After achieving whole cell configuration, cells were monitored for 90 s to assess stability and then washed with External Solution for 66 s. The voltage protocol described above was then applied to the cells every 12 s throughout the procedure. Only stable cells with recording parameters above threshold (see Quality Control section) were allowed to enter the drug addition procedure. External solution containing 0.1% DMSO (vehicle) was applied to the cells to establish a baseline. After allowing the current to stabilize for 3 to 5 min, test articles were applied. Test article solutions were added to cells in 4 separate additions. Cells were kept in test solution until effect of the test article reached steady state, to a maximum of 12 min. Next, 1 μM cisapride (positive control) was added. Finally, washout with External Solution was performed until the recovery current reached a steady state.
Data Analysis: Data analysis was performed using DataXpress (Axon Instruments), Clampfit (Axon Instruments) and Origin (Originlab Corporation) software.
A general note: Block of hERG is tested as a sign of cardiac risk.

The next data set addresses FTase (Homo sapiens, UniProt P49356). Particulars: cited from earlier work.

T1 sequence (Q12809 whole entry): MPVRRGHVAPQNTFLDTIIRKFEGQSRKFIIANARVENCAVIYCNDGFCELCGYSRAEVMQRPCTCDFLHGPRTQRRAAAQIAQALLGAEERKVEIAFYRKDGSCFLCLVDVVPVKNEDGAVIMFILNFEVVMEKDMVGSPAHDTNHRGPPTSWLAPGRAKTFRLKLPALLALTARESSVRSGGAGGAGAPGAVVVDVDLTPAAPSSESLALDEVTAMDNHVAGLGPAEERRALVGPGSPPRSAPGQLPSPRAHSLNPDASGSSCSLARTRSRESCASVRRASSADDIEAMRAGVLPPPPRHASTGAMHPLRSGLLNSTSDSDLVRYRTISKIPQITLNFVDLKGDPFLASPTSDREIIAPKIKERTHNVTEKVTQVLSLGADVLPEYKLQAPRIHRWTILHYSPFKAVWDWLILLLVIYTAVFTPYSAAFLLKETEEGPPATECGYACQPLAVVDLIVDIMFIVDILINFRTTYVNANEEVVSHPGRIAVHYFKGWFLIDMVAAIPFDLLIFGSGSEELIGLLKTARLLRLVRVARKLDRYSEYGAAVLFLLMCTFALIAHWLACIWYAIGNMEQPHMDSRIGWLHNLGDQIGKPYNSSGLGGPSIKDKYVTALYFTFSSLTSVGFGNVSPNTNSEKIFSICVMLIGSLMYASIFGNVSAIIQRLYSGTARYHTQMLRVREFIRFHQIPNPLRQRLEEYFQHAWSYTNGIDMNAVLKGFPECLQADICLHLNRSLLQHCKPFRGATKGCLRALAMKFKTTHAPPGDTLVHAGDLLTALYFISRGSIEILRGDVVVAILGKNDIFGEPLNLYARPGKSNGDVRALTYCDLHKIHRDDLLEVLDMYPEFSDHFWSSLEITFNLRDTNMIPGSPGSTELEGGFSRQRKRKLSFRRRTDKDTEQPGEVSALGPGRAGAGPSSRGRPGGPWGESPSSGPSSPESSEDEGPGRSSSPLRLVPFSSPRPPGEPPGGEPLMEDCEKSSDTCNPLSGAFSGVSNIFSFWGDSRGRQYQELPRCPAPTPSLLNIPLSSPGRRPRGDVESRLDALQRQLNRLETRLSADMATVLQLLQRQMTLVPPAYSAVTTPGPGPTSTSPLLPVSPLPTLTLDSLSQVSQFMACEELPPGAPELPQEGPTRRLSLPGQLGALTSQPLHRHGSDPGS

As a reminder, the EC50 is the concentration at which the effect is half-maximal. `CC1CCCN1CCCc1nn(C)c2nc(N3CCCCCCC3)ccc12` (stereo not shown) [compound 1452]: the EC50 in the data set with HCV genotype 1b is 1.2 µM. For the same compound, the results for the “human liver microsome (HLM, % parent remaining)” value in data set [1] (after 15 min), in data set [1] (after 30 min) and in data set [1] (after 60 min) were 32 % parent remaining, 13 % parent remaining and 3 % parent remaining, respectively. The “rat liver microsome (RLM), % parent remaining” value in data set [2] (after 15 min) is 2 % parent remaining; in data set [2] (after 30 min), 0.8 % parent remaining; in data set [2] (after 60 min), 0.5 % parent remaining. Besides, the “mouse liver microsome (MLM), % parent remaining” value in data set [3] (after 15 min) worked out at 1.7 % parent remaining; in data set [3] (after 30 min), 0.9 % parent remaining; in data set [3] (after 60 min) it was 0.3 % parent remaining.

In general, IC50 refers to the concentration that gives 50% inhibition. `O=C(Nc1n[nH]c2nc(N3CCCCCC3)ccc12)C1CCNCC1` [compound 680]: the EC50 with HCV genotype 1b came out at 4.1 µM. Moreover, at hERG channel, the IC50 was above 10 µM.

Take `O=C(NCC1CCNCC1)c1n[nH]c2nc(N3CCCCCC3)ccc12` [compound 702]: the EC50 with HCV genotype 1b came out at 3.4 µM. The compound also showed an IC50 on hERG channel above 10 µM.

With `Cn1nc(C(=O)Nc2ccncc2)c2ccc(N3CCCCCC3)nc21` [compound 701], the EC50 with HCV genotype 1b worked out at 1.1 µM. At hERG channel, this compound yielded an IC50 above 10 µM.

Turning to `Cn1nc(C(=O)NC2CCN(CCN3CCCCC3CO)CC2)c2ccc(N3CCCCCC3)nc21` (stereo not shown) [compound 1559], the EC50 in the data set with HCV genotype 1b came out at 1.8 µM. The “human liver microsome (HLM, % parent remaining)” value in data set [1] (after 15 min) came to 65 % parent remaining; in data set [1] (after 30 min), 32 % parent remaining; in data set [1] (after 60 min), 7 % parent remaining. The results for the “rat liver microsome (RLM), % parent remaining” value in data set [2] (after 15 min), in data set [2] (after 30 min) and in data set [2] (after 60 min) were 57 % parent remaining, 31 % parent remaining and 8 % parent remaining, respectively. In addition, the “mouse liver microsome (MLM), % parent remaining” value is reported as 54 % parent remaining in data set [3] (after 15 min), 27 % parent remaining in data set [3] (after 30 min) and 5 % parent remaining in data set [3] (after 60 min).

In the case of `O=C(NC1CCNCC1)c1n[nH]c2nc(O)ccc12` [compound 744], in the data set with HCV genotype 1b, the EC50 turned out to be 1.5 µM. At hERG channel, this compound returned an IC50 above 10 µM.

In the case of `O=C(Nc1nn(Cc2ccc(Cl)cc2)c2nc(N3CCCCCC3)ccc12)C1CCCNC1` (stereo not shown) [compound 745], the EC50 in the data set on HCV genotype 1b came out at 3 µM. On hERG channel, this compound returned an IC50 above 10 µM.

With `CC(C)CN(C)c1ccc2c(C(=O)NC3CCNCC3)n[nH]c2n1` [compound 738], the EC50 in the data set with HCV genotype 1b was 2.2 µM. This compound also yielded an IC50 on hERG channel above 10 µM.

On to `Cn1nc(NC(=O)c2cccs2)c2ccc(N3CCCCCC3)nc21` [compound 659], for which the 50% effective concentration (EC50) in the data set on HCV genotype 1b is 1.8 to 4.9 µM. On hERG channel, the IC50 was above 10 µM.

For `CC1CCC(C)N1CCOCc1nn(C)c2nc(N3CCCCCC3)ccc12` (stereo not shown) [compound 1540], in the data set with HCV genotype 1b, the EC50 stood at 2.7 µM. For the same compound, the figures for the “human liver microsome (HLM, % parent remaining)” value in data set [1] (after 15 min), in data set [1] (after 30 min) and in data set [1] (after 60 min) were 17 % parent remaining, 9 % parent remaining and 4 % parent remaining, respectively. Besides, the “rat liver microsome (RLM), % parent remaining” value in data set [2] (after 15 min) is given as 17 % parent remaining; in data set [2] (after 30 min), 2 % parent remaining; in data set [2] (after 60 min) it was 4 % parent remaining. Moreover, the “mouse liver microsome (MLM), % parent remaining” value in data set [3] (after 15 min) came to 34 % parent remaining; in data set [3] (after 30 min), 18 % parent remaining; in data set [3] (after 60 min), 10 % parent remaining.

As to `Cn1nc(C(=O)NC2CCN(CC3CCCCC3)CC2)c2ccc(N3CCCCCC3)nc21` [compound 987], in the data set with HCV genotype 1b, the half-maximal effective concentration (EC50) was determined as 0.55 µM. On hERG channel, it took 0.88 µM to reach half-maximal inhibition (IC50).

As to `Cn1cncc1C(N)(c1ccc(Cl)cc1)c1ccc2c(c1)c(-c1cccc(Cl)c1)cc(=O)n2C` (stereo not shown) [Tipifarnib, 6-[Amino(4-chlorophenyl)-1-methyl-1H-imidazol-5-ylmethyl]-4-(3-chlorophenyl)-1-methyl-2(1H)-quinolinone], the IC50 on FTase is 0.00086 µM.

`CCC(CC)Oc1ccc2c(COCC3CCNCC3)nn(Cc3ccc(Cl)cc3)c2n1` [compound 756]: in the data set with HCV genotype 1b, the EC50 was 2.2 µM. In addition, the midpoint of inhibition at hERG channel (human, CHO cells stably expressing hERG, pH 7.4), the IC50, lay at 10 µM.

On to `O=C(NC1CCNCC1)c1n[nH]c2nc(N3CCCCCC3)ccc12` [compound 655], for which the EC50 in the data set on HCV genotype 1b is 2.1 to 3.5 µM. Also, at hERG channel, it took 1.34 µM to reach half-maximal inhibition (IC50).

For `CC1CCCCN1CCOCc1nn(C)c2nc(N3CCCCCC3)ccc12` (stereo not shown) [compound 1549], in the data set with HCV genotype 1b, the EC50 amounted to 4 µM. The “human liver microsome (HLM, % parent remaining)” value in data set [1] (after 15 min) was 16 % parent remaining; in data set [1] (after 30 min), 11 % parent remaining; in data set [1] (after 60 min), 13 % parent remaining. Also, the “rat liver microsome (RLM), % parent remaining” value was found to be 52 % parent remaining in data set [2] (after 15 min), 31 % parent remaining in data set [2] (after 30 min) and 17 % parent remaining in data set [2] (after 60 min). The “mouse liver microsome (MLM), % parent remaining” value amounted to 27 % parent remaining in data set [3] (after 15 min), 17 % parent remaining in data set [3] (after 30 min) and 13 % parent remaining in data set [3] (after 60 min).

Regarding `O=C(NC1CCNCC1)c1n[nH]c2nc(OC3CCCCC3)ccc12` [compound 729], the EC50 with HCV genotype 1b amounted to 1.8 µM. The IC50 at hERG channel is above 10 µM.

Regarding `O=C(NCC1CCCNC1)c1n[nH]c2nc(N3CCCCCC3)ccc12` (stereo not shown) [compound 703], the EC50 with HCV genotype 1b was found to be 2.2 µM. Further, the IC50 against hERG channel stood at 8.8 µM.

For the compound `Cn1nc(N)c2ccc(N3CCCCCC3)nc21` [compound 658], the EC50 in the data set with HCV genotype 1b was in the range of 0.4 to 2.2 µM. The compound also gave an IC50 against hERG channel above 10 µM.
